Paper PMC3368886, “ATPase Cycle and DNA Unwinding Kinetics of RecG Helicase” (PLoS ONE, 2012)

What was measured:
RecG [1] = biological target: T1, RecG (Thermotoga maritima, UniProt Q9WY48); assay: mantATP cleavage (acid quench) and Pi release in the absence of DNA; assay type: biochemical
T1 construct: made in house
T1 sequence (Q9WY48 1-780): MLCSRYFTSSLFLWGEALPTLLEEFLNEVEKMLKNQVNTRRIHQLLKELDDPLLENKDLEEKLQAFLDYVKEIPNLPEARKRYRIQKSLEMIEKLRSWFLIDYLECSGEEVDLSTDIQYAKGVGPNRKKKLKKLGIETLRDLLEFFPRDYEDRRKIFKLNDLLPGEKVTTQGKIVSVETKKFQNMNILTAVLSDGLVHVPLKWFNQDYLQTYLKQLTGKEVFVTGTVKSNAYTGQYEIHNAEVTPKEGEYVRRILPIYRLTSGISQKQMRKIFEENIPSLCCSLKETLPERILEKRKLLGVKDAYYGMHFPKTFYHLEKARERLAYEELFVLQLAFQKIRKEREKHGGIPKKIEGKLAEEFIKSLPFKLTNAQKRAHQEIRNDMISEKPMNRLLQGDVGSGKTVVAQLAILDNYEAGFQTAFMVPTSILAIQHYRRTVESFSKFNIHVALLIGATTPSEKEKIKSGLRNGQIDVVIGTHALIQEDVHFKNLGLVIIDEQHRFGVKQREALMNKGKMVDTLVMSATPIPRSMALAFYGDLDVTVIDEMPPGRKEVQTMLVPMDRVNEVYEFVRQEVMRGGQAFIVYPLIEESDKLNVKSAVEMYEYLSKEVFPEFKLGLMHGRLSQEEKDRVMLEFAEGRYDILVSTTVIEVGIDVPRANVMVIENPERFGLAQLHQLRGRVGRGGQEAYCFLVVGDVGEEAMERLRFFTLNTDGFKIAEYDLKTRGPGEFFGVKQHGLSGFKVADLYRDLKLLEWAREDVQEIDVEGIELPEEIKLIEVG
Method: As done for the RecG⋅DNA complex, measurements were also taken with an excess of RecG over mantATP (Figure S3B). A large, relative rapid, increase in mant fluorescence was observed followed by a small gradual increase. The rate constants are consistent with those at excess mantATP. Under the same conditions of excess RecG over mantATP, mantATP cleavage (acid quench) and Pi release were measured (Figure S3B). […] The cleavage step rate constant was 4×10^−4 s^−1, ∼10^3 slower than in the presence of DNA. […] The cleavage step was greatly stimulated by DNA.
Supplementary file pone.0038270.s003.tif: Figure S3 Kinetic measurements in the absence of DNA. (A) Association kinetics with mantATP. Dependence of the observed rate constants on mantATP concentration from mixing 0.5 µM RecG with excess mantATP under the same conditions as Figure 3. Points shown are typically an average of three individual measurements. The best linear fit gives a slope of 0.4 (±0.15) µM^−1 s^−1 and intercept 1.7 (±0.6) s^−1. (B) Fluorescence trace upon mixing 2.5 µM RecG with 0.5 µM mantATP under the conditions of Figure 4. […] Note that as the fluorescence slowly increases beyond the time course, it was not possible to calibrate the ordinate. […] Pi release kinetics (continuous line) were measured for the same mixture containing 10 µM MDCC-PBP. […]

RecG [2] = biological target: T1, RecG; assay: Titrations of RecG into fluorescent nucleotides in the absence of DNA; assay type: binding
Method: The two phases of this fluorescence increase with excess RecG⋅DNA would therefore relate to formation of bound mantATP (1.5-fold intensity increase relative to free nucleotide) and bound mantADP (4.9-fold). This interpretation was supported by titrations of RecG into the fluorescent nucleotides in the absence of DNA.
Steady-state fluorescence was measured using a Cary Eclipse fluorimeter (Varian) with a xenon light source. Absorbance spectroscopy was performed using a Beckman DU640 spectrophotometer.

RecG [3] = biological target: T1, RecG; assay: Phosphate-water oxygen exchange during hydrolysis; assay type: biochemical; conditions: 20°C, Table 2 summary
RecG [4] = biological target: T1, RecG; assay: ATP hydrolysis during unwinding (phosphate biosensor, heparin trap); assay type: biochemical; conditions: 200 nM 4-strand complementary junction, 10 nM RecG, 200 µM ATP
Method: The rate of ATP hydrolysis and total ATP usage during unwinding were measured using the phosphate biosensor (Figure 8), following rapid mixing of ATP with the RecG⋅DNA complex. […] Heparin is a potent inhibitor of many helicases, mimicking the DNA substrate and binding tightly to the enzyme, once the latter dissociates from the DNA, and so prevents rebinding of the helicase to fresh DNA substrates. The initial, rapid phase, which represents unwinding of the first DNA junction, was unaffected by the presence of heparin. […] RecG will continue to hydrolyze ATP while bound to the DNA substrate.
Figure 8 ATP hydrolysis during unwinding 4-strand complementary junctions. Junctions of varying arm lengths (shown in b.p.) were used to measure the rate of ATP hydrolysis during unwinding. RecG was pre-incubated with junction and the reactions were initiated by rapid mixing with ATP and heparin. […]
The ATPase measurement was repeated with different lengths of lagging and leading strands, as used in the unwinding measurements, in the presence of heparin (Figure 8 main panel). […] The ATPase rate measured here is similar to the steady-state and hydrolysis rate constants measured in the above sections, supporting the idea that the ATP hydrolysis reaction is not greatly affected by the type of junction.

RecG [5] = biological target: T1, RecG; parameters: method as in PMID 16363810; conditions: much lower concentration of DNA; cited from earlier work

Compound | cleavage step rate constant (RecG [1]; absence of DNA, excess RecG over mantATP) [s⁻¹] | cleavage slower than in the presence of DNA (RecG [1]; absence vs presence of DNA) | increase in fluorescence on titration with RecG (RecG [2]) [fold] | k −2 (reverse of cleavage) (RecG [3]) [s⁻¹] | rate of ATP hydrolysis during unwinding phase (RecG [4]) [s⁻¹] | K m previously reported (RecG [5]) [µM] | k cat previously reported (RecG [5]) [s⁻¹]
CNc1ccccc1C(=O)O[C@H]1[C@@H](O)[C@H](n2cnc3c(N)ncnc32)O[C@@H]1COP(=O)(O)OP(=O)(O)OP(=O)(O)O [mantATP, 2′(3′)-O-(N-methylanthraniloyl)ATP] | 0.0004 | ~10^3 | 1.3 | <0.01 |  |  | 
Nc1ncnc2c1ncn2[C@@H]1O[C@H](COP(=O)(O)OP(=O)(O)OP(=O)(O)O)[C@@H](O)[C@H]1O [ATP] |  |  |  |  | 5.8 | 42 | 5.2
